In paper PMC7153278, “Discovery of Membrane-Bound Pyrophosphatase Inhibitors Derived from an Isoxazole Fragment” (ACS Medicinal Chemistry Letters, 2020):
pIC50: −log10 of the molar value.

Assays:
[1] = target: Thermotoga maritima mPPase (TmPPase) (Thermotoga maritima, UniProt Q9S5X0); assay: TmPPase inhibition assay (96-well plate, orthophosphate determination); format: biochemical; settings: for LE (ligand efficiency): computed using the pIC50 and the Heavy Atom Count (LEHA) normalization method, Discovery Studio; for IC50: IC50 [CI95%] (µM), unrounded values of the molecular formula strings file; for IC50 / pIC50 / IC50 [CI95%]: purified TmPPase; for pIC50: IC50 [CI95%]; for pIC50 / IC50 [CI95%]: 95% confidence interval in square brackets
Method: The inhibition assay was measured in 96 well plate assay as previously reported.5,6 Briefly, 1 µL of purified TmPPase (13 mg/mL) was reactivated in 99 µL of reactivation buffer (20 mM 2-(N-morpholino) ethanesulfonic acid (MES) pH 6.5, 3.5% (v/v) glycerol, 2 mM dithiothreitol (DTT), 4.5% dodecyl maltoside (DDM) and 12 mg/mL L-α-phosphatidylcholine from soybean) and incubated at 55 °C for 15 min. For the assay, to each tube strips, 0.2 µL of the reactivated enzyme was added to 14.8 µL of reaction buffer (200 mM Tris-Cl pH 8.0, 8.0 mM MgCl2, 333 mM KCl, and 67 mM NaCl) and 25 µL of inhibitor. The reaction mixtures were sealed with an adhesive sealing sheet (Thermo Scientific) and incubated at 71 °C for 5 min. The reactions were started with the addition of 10 µL of 2 mM sodium pyrophosphate, further incubation at 71 °C for 5 min and stopped by placing the reaction mixtures on ice for 10 min. The color development was done with the addition of ammonium heptamolybdate + ascorbic acid solution on ice for 10 min and then 90 µL of arsenic solution, at room temperature, for a minimum of 30 min. 180 µL of each reaction mixtures was then transferred into a clear 96 well polystyrene microplate and the absorbance was measured at 860 nm using a microplate spectrophotometer (MultiSkan Go, Thermo Scientific). The pilot inhibitor screening of 16 phosphate-mimicking fragments was done at 100 μM inhibitor concentration. Further screening was done with three different concentrations; 1 μM, 5 μM and 50 μM for soluble compounds, and 1 μM, 5 μM, and 20 μM for sparingly soluble compounds.6 The best hits were validated using 8 concentrations in triplicate in TmPPase.
The potent hits 12k and 12l compounds were then tested on the P. falciparum (PfPPase-VP1) membrane fractions expressed in baculovirus-infected insect cells (the expression method and further enzyme analysis will be described in more detail elsewhere). Briefly, to each tube strips, 2.4 µL of PfPPase-VP1 membrane fraction (5 mg/mL) was added into 12.6 µL of reaction buffer (200 mM Tris-Cl pH 8.0, 8.0 mM MgCl2, 333 mM KCl, 67 mM NaCl, 3.3 mM NaF, and 17 μM Gramicidin D) and 25 µL of inhibitor. The reaction mixtures were incubated at 30 °C for 5 min and the assay was started by the addition of 10 µL of 2 mM sodium pyrophosphate and further incubation at 30 °C for 10 min. The reaction termination and color development were done as before.
The in vitro anti-plasmodial activity assay strain 3D7 was maintained in culture as described previously.7 Briefly, parasites were cultured in O+ human erythrocytes at 5% haematocrit in RPMI - 1640 medium supplemented with 0.5% Albumax II (Gibco, Carlsbad, CA, USA), 200 μM hypoxanthine (Sigma, St. Louis, MO, USA) and 20 μg/mL gentamycin (Gibco). Parasites were synchronized with the sorbitol method as described. 8 Test compound was dissolved in DMSO to make a stock solution of 10 mM. Two -fold serial dilutions of the test compound were made in the culture medium to cover the range of 400 µM – 400 nM. Fifty microliters of each dilution were mixed in 96 well plate with 150 µL of 2% haematocrit of 0.5% parasitemia (ring stage). DMSO concentration in the highest compound concentration w as 0.1%. After 72 h incubation at 37 °C, the parasite growth was quantified using fluorescent SYBR Green I ® -based assay as described. 9 The half-maximal inhibitory concentration (IC 50) of the test compound was assessed using the non-linear regression fit model in Prism 7 (GraphPad Software). The potent anti-malarial drug, artemisinin, was use in parallel as a positive control. Each concentration of the test compound was tested in duplicate and the assay was repeated three times. The mean and standard deviation of the three repeats were used to estimate the IC50.
IC50 determinations were done using R 3.6.110 and the n-parameter logistic regression (nplr) package11 version 0.1-7. In this package, the weighted nplr, given x (compound concentrations) and […]

[2] = Colloidal aggregation under TmPPase assay conditions (nephelometry); format: physicochemical
Method: Aggregation data for 5, 12k and 12l (Figure S1)
Potential colloidal aggregation in the TmPPase model system was studied at five concentrations (50 µM, 25 µM, 10 µM, 5 µM, and 1 µM). The original assay conditions were simulated, and the light scattering of potential aggregates in the mixture was studied by nephelometric methods using Nepheloskan Ascent® (Labsystems, Finland). Aggregation of the blank and compounds 5, 12k and 12l were measured as triplicates from one independent experiment at three different voltages (300 V, 400 V and 500 V) at room temperature.
5 µM and 1 µM concentrations the obtained values were close to those observed by the blank, thereby […]
Figure S1. Aggregation data for compounds 5, 12k and 12l. The data, measured in relative nephelometric units (RNU), is shown as the mean ± SD and normalized to the blank.
(1 picture or pasted object on this page, not shown here)
Experimental procedures and characterization data
Commercial analogues were retrieved by screening the ZINC12 database1 (clean drug-like subset; downloaded on 27.04.2016) using a KNIME2 workflow connected to the RDKit3 nodes. The SAR analyses and docking studies (data not shown) underlying this work were conducted using the Schrödinger molecular modeling platform (Canvas and Glide modules, respectively)4 .
Compounds 1–7, 13–20 and 24 were obtained from commercial suppliers. Supporting Information, Table S1 summarizes the compounds tested. Compound purity was >95% as determined by LC-MS and characterized by HRMS. For all commercial compounds after the initial screen, purity was tested independently from the vendor specification (a few compounds of lower purity are reported only in Supporting Information). To evaluate potential aggregation of samples in the TmPPase based assay, aggregate formation in the assay conditions was studied at five concentrations (50 μM, 25 μM, 10 μM, 5 μM, and 1 μM) for compounds 5, 12k and 12l (Figure S1).
All chemicals used were commercially available. Reactions using anhydrous conditions were conducted in oven-dried (130 °C, >24 h) glassware, purged with argon prior to use. Microwave reactions were performed using a Biotage Initiator+ instrument (Uppsala, Sweden). The progress of the reactions was monitored by thin-layer chromatography on silica gel 60-F254 aluminum plates and visualized by using a dual short/long wave (254/366 nm) UV lamp. The combined organic solutions from extractions were dried over anhydrous Na2SO4, filtered and concentrated with a rotary evaporator at reduced pressure. Flash SiO2 column chromatography was performed with automated high performance flash chromatography, Biotage Isolera™ Spektra Systems with ACI™ and Assist (ISO-1SW Isolera One) equipped with a variable UV-VIS (200–800 nm) photodiode array (Uppsala, Sweden) using SNAP KP-SIL/Ultra 10 g or 25 g cartridges and the indicated mobile phase gradient.
The reactions were not optimized and all the yields are given for purified products.
Characterization of the synthesized products were done by NMR and MS analysis. 1H and 13C NMR spectra were acquired at 298 K on a Bruker Ascend 400 MHz – Avance III HD NMR spectrometer (Bruker Corporation, Billerica, MA, USA). Chemical shifts (δ) are reported in parts per million (ppm) relative to the residual solvent signals: CDCl3 7.26 and 77.16 ppm, CD3OD 3.31 and 49.00 ppm, DMSO-d6 2.50 and 39.52 ppm for 1H and 13C NMR, respectively. […] High resolution mass (HRMS-ESI) data was reported for the calculated and experimentally […]

Sequence of Thermotoga maritima mPPase (TmPPase) (Q9S5X0 whole entry): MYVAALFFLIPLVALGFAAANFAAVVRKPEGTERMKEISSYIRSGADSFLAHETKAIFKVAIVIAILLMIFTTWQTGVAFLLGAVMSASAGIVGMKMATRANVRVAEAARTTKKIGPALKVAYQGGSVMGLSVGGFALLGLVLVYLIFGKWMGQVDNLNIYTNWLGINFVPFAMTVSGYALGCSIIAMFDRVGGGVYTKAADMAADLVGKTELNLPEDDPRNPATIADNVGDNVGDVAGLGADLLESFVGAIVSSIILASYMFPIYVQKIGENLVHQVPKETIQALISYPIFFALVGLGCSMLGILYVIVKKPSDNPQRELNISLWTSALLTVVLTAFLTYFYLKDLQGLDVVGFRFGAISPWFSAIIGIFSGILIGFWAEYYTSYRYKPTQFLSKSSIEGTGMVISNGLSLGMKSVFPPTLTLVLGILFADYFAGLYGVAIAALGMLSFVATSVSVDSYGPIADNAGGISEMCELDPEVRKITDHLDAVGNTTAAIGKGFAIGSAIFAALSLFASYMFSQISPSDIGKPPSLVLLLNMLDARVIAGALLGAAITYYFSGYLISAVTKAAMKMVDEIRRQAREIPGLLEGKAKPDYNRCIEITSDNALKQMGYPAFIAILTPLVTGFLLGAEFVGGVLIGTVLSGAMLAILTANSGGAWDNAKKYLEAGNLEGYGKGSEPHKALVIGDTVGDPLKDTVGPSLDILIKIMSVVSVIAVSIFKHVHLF

Cc1nc(-c2cc(C(=O)O)no2)cs1 [Compound 5]
LE (ligand efficiency) [1]: 0.34 | aggregation (light scattering) ([2]; 50, 25, 10, 5 and 1 µM, room temperature): no detectable aggregation at all

Cc1cc(C)cc(-c2cc(C(=O)Oc3ccccc3Br)no2)c1 [Compound 12k]
LE (ligand efficiency) [1]: 0.22 | aggregation (light scattering) ([2]; at 10 µM, 5 µM and 1 µM): only minor/no detectable aggregation | aggregation (light scattering) ([2]; at 50 µM and 25 µM): showed aggregate formation

CCOC(=O)c1cc(-c2ccc(OC)c(S(=O)(=O)Nc3ccc(F)c(Cl)c3)c2)on1 [SI-31]
IC50 [1]: 58 µM | pIC50 [1]: 4.24

CCOC(=O)c1cc(-c2ccc(OC)c(S(=O)(=O)Nc3ccc(Cl)cc3F)c2)on1 [SI-32]
IC50 [1]: 122 µM | pIC50 [1]: 3.91

CCOC(=O)c1cc(-c2ccc(OC)c(S(=O)(=O)Nc3ccc(Cl)cc3)c2)on1 [SI-33]
IC50 [1]: 280 µM | pIC50 [1]: 3.55

CC(C)(C)c1cc(CC(=O)O)cc(C(C)(C)C)c1 [SI-42]
IC50 [CI95%] [1]: Inactive

CC(C)(C)c1cc(C(N)=O)cc(C(C)(C)C)c1 [SI-43]
IC50 [CI95%] [1]: Inactive

CC(C)(C)c1cc(C(O)CC(=O)NN)cc(C(C)(C)C)c1 (stereo not drawn) [SI-44]
IC50 [CI95%] [1]: Inactive

CC(C)(C)c1cc(CN)cc(C(C)(C)C)c1 [SI-45]
IC50 [CI95%] [1]: Inactive

CC(C)(C)c1cc(CO)cc(C(C)(C)C)c1 [SI-46]
IC50 [CI95%] [1]: Inactive

CC(C)(C)c1cc(C(=O)Nc2ccccc2C(=O)O)cc(C(C)(C)C)c1 [SI-47]
IC50 [CI95%] [1]: Inactive

CC(C)(C)c1cc(C(=O)NCCN2CCOCC2)cc(C(C)(C)C)c1 [SI-48]
IC50 [CI95%] [1]: Inactive

CC(C)(C)c1cc(C(=O)OCCN2CCOCC2)cc(C(C)(C)C)c1 [SI-49]
IC50 [1]: 340 µM | pIC50 [1]: 3.47

CCOC(=O)c1cc(-c2ccccc2)[nH]n1 [SI-50]
IC50 [CI95%] [1]: Inactive

CCOC(=O)c1cc(-c2ccc([N+](=O)[O-])cc2)[nH]n1 [SI-51]
IC50 [CI95%] [1]: Inactive

O=C(O)c1csc(-c2ccc(C(F)(F)F)cc2)n1 [SI-52]
IC50 [CI95%] [1]: Inactive

O=C(Oc1ccccc1Br)c1cc(-c2ccc([N+](=O)[O-])cc2)[nH]n1 [SI-53]
IC50 [CI95%] [1]: Slightly

Cc1ccc(-c2cc(C(=O)Oc3ccccc3Br)no2)cc1C [SI-54]
IC50 [1]: 17.4 µM | pIC50 [1]: 4.77 | LE (ligand efficiency) [1]: 0.20
